Measurements published in patent US20160250221A1, “INHIBITORS OF FAPP2 AND USES THEREOF” (FONDAZIONE TELETHON, priority 2013, published 2016).
Entries after “also recorded” stand apart in the source; their conditions may differ.

Assays:
FAPP2-HIS-SUMO-C-212 = target: T1, FAPP2-HIS-SUMO-C-212 (Homo sapiens, UniProt Q96JA3); assay: FRET GlcCer transfer assay with FAPP2-C212 (384-well); assay type: biochemical; details: for inhibition of FAPP2 transfer activity: 50 uM compound
T1 construct: the recombinant FAPP2 protein is FAPP2-GLTP-C212 or FAPP2 Full-Length (FL)
T1 sequence (Q96JA3 310-519 limits assumed): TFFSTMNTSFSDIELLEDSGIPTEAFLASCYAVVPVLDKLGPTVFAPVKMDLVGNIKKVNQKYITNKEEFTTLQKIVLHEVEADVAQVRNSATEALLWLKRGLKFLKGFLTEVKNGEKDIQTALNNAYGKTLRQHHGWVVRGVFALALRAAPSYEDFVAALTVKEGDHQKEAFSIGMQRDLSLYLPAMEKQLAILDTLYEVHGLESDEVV
Method: (§1) FAPP2 transfer activity has been evaluated using Fluorescence Resonance Energy Transfer. The FRET assay involves mixing of acceptor vesicles (formed by sonication of 1,2-dioleoyl-sn-glycero-3-phosphocholine (DOPC) suspended in buffer) with donor vesicles containing TopFLUOR-labeled GlcCer (1 mole %) and Di1C18 used as quencher (3 mole %), and recombinant FAPP2 protein (0.5 uM). Recovery of emission intensity at 520 nm (excitation at 485 nm) occurs during FAPP2-mediated transfer of GlcosylCeramide from quenched donor vesicles to unquenched acceptor vesicles. The assay has been performed using FAPP2-GLTP-C212 or FAPP2 Full-Length (FL). In order to conduct the high throughput inhibitor screen, the transfer activity assay was adapted to a microplate format (384 well plate) and read using Synergy Neo HTS Multi-Mode Microplate Reader. First, mixture containing 30 ul of acceptor small unilamellar vesicles, FAPP2 transport protein, and drug in buffer was added to each well in triplicate and read for 1 min to calculate the fluorescence baseline. Then 30 ul donor vesicles were added to each well and read for 15 or 30 mins. Since the increase in fluorescence emission occurs exclusively in presence of FAPP2 transport, the inhibition rate of each compound is evaluated by its ability to decrease the fluorescence emission.

FAPP2-FL-SUMO = target: T2, FAPP2-FL-SUMO (Homo sapiens, UniProt Q96JA3); assay: FRET-based GlcCer transfer assay, Example 8 (96-well, full-length FAPP2); assay type: biochemical; details: for competition with the GlcCer transfer activity of FAPP2: final concentration 10 uM
T2 construct: FAPP2-FL-SUMO (recombinant FAPP2 full length protein tagged with small ubiquitin-related modifier); made in house; host or cells: Rosetta cells (E. coli, own knowledge)
T2 sequence (Q96JA3 1-519): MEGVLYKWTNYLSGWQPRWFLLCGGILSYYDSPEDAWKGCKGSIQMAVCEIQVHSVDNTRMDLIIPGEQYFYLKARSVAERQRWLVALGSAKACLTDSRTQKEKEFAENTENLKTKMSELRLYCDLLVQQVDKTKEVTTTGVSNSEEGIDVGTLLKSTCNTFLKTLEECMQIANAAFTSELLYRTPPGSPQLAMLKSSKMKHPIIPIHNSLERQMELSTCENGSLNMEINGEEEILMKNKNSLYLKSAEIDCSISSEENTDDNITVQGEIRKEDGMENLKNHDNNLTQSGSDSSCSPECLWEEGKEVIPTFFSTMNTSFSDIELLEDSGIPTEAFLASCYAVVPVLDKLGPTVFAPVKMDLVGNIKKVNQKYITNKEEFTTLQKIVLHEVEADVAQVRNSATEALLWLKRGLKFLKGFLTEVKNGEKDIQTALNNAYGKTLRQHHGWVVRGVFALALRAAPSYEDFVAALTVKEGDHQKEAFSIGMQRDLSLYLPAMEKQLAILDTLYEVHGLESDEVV
Method: Specifically, acceptor vesicles (formed by sonication of 1,2-dioleoyl-sn-glycero-3-phosphocholine (DOPC) were suspended in 10 mM NaH2PO4 buffer, pH 7.4, containing 1 mM dithiothreitol and 1 mM EDTA) and were incubated with donor vesicles containing BODIPY-labeled GlcCer (1 or 2 mole %, as indicated) and Di1C18 used as quencher (3 mole %), and recombinant FAPP2 protein (at the indicated concentrations).
Recovery of emission intensity at 520 nm (excitation at 485 nm) occurred during protein-mediated transfer of GlcCer from quenched donor vesicles to unquenched acceptor vesicles.
Phlorizin and Dapagliflozin were resuspended in DMSO (100 mM). The assay was conducted at four different concentrations (1 mM, 500 uM, 200 uM, 100 uM). Both FAPP2 WT and FAPP2 W407A were used to highlight possible non-specific effects of the drugs on fluorescence emission. First, mixture that contained FAPP2, acceptor small unilamellar vesicles and drug in buffer were added to 96 well plates, the plate was immediately loaded into the plate reader. Following 2 sec of shaking, the fluorescence emission @520 nm (excitation 485 nm) was measured at 10 sec intervals for 5 mins to calculate the baseline fluorescence. Then, donor vesicles were added to each well and read again for the indicated time. The experiments were repeated at least 3 times and each measurement performed in triplicate.
To screen and identify small molecules for drug development for Fabry disease treatment, a miniaturized FRET-based in vitro screening assay was developed to screen for small molecules that can inhibit FAPP2. The miniaturized FRET-based in vitro screening assay tests the ability of FAPP2 to transfer GlcCer from donor to acceptor and identifies small molecules able to inhibit the transfer activity of FAPP2. The flFAPP2 was produced as Sumo-fusion protein and assayed in Rosetta cells.

HeLa cells = assay: GSL synthesis by 3H-sphingosine metabolic labelling; assay type: cell-based
[1] = test system: 3XHA-Gb3S and 3XHA-GM3S distribution; assay: Immunofluorescence localization of HA-GM3S and HA-Gb3S; assay type: cell-based; details: BFA 5 μg/ml 30 min
Method: All immunofluorescence experiments were performed as described previously^1,14. Images are confocal optical slices obtained using an LSM 710 (Zeiss) confocal microscope. Colocalization analysis was performed as described in^14 or by using an object-based colocalization method included in the JACoP v2.0 application for ImageJ^16. In brief, individual mini-stacks in nocodazole-treated cells were considered as objects, whose mass-center position was calculated after segmentation, the perfect coincidence of mass-center positions for two distinct labelling (i.e. Gb3S/TGN46, or GM3S/TGN46) in a single ministack was considered as a positive colocalization event.

FAPP2-FL-SUMO-HIS = target: T3, FAPP2-FL-SUMO-HIS (Homo sapiens, UniProt Q96JA3); assay: FRET GlcCer transfer assay with full-length FAPP2 (Example 9); assay type: biochemical; details: 50 uM compound; FAPP2-FL-SUMO-HIS at 0.5 uM; measured for 15 mins
T3 construct: The assay has been performed using FAPP2-GLTP-C212 or FAPP2 Full-Length (FL); made in house; host or cells: Rosetta cells (E. coli, own knowledge)
T3 sequence (Q96JA3 1-519): T2 sequence (Q96JA3 1-519)
Method: as §1

[2] = test system: ts045 VSV-G (VSVG) transport; assay type: cell-based; details: dicoumarol 200 μM
[3] = FAPP2-C212 at 0.5 uM, measured for 30 mins

## CCc1oc2ccccc2c1C(=O)c1cc(Br)c(O)c(Br)c1 [Benzbromarone]
FAPP2-HIS-SUMO-C-212
  ranking as FAPP2 inhibitor in vitro: one of the most potent FAPP2 inhibitors
FAPP2-HIS-SUMO-C-212; [3]
  inhibition of FAPP2 transfer activity: 80%

## CC(C)=CCC/C(C)=C/CC/C(C)=C/Cc1c(O)cc(C)c(C(=O)O)c1O [Grifolic Acid]
FAPP2-HIS-SUMO-C-212
  ranking as FAPP2 inhibitor in vitro: most active FAPP2 inhibitor in vitro
FAPP2-HIS-SUMO-C-212; 50 uM, FAPP2-C212 at 0.5 uM, measured for 30 mins
  effect on FAPP2-mediated GlcCer transfer: significantly reduced
FAPP2-HIS-SUMO-C-212; 100 uM, FAPP2-C212 at 0.5 uM, measured for 30 mins
  effect on FAPP2-mediated GlcCer transfer: significantly reduced

## CCSc1ccc2c(c1)N(CCCN1CCN(C)CC1)c1ccccc1S2 [Thiethylperazine]
FAPP2-HIS-SUMO-C-212; [3]
  inhibition of FAPP2 transfer activity: 60%

## CCCCCCCCCCCCC/C=C/[C@@H](O)[C@H](COC1OC(CO)C(O)C(O)C1O)NC(=O)CCCCCCC (some centres unmarked) [C8-GlcCer]
FAPP2-FL-SUMO
  competition with the GlcCer transfer activity of FAPP2: able to inhibit transfer by competition
FAPP2-FL-SUMO; listed as C8-G1Cer
  competition with the GlcCer transfer activity of FAPP2: competes

## COc1cc(C(=O)NS(=O)(=O)c2ccccc2C)ccc1Cc1cn(C)c2ccc(NC(=O)OC3CCCC3)cc12 [Zafirlukast]
FAPP2-HIS-SUMO-C-212; [3]
  inhibition of FAPP2 transfer activity: 90%

## O=C(CCc1ccc(O)cc1)c1c(O)cc(O)cc1O[C@@H]1O[C@H](CO)[C@@H](O)[C@H](O)[C@H]1O [Phlorizin]
FAPP2-FL-SUMO; four drug concentrations (100 uM, 200 uM, 500 uM, 1 mM)
  inhibition of GlcCer transfer activity of FAPP2: can inhibit; also recorded: inhibits the GlcCer transfer

## C[C@H]1CCC/C=C/[C@@H]2C[C@H](O)C[C@H]2[C@H](O)/C=C/C(=O)O1 [BFA, Brefeldin A]
HeLa cells; BFA 5 μg/mL
  Gb3 synthesis: decreased
HeLa cells; BFA 5 μg/mL, parental cells
  GM3 synthesis: but not that of GM3
HeLa cells; HeLa cells overexpressing GM3S (HeLa-GM3S), BFA 5 μg/mL
  GM3 synthesis: became sensitive
[1]
  redistribution of GM3S to the ER: redistributed

## O=C(Nc1cccc2c(=O)cc(-c3nn[nH]n3)oc12)c1ccc(OCCCCc2ccccc2)cc1 [Pranlukast]
FAPP2-HIS-SUMO-C-212; [3]
  inhibition of FAPP2 transfer activity: 90%

## O=C(O)Cn1nnc(-c2cc(N3CCC(Oc4cc(F)ccc4Br)CC3)no2)n1 [MK-8245]
FAPP2-FL-SUMO-HIS
  inhibition of FAPP2 transfer activity: 40%

## Cc1cc(OCCCS(C)(=O)=O)cc(C)c1-c1cccc(COc2ccc3c(c2)OCC3CC(=O)O)c1 (centres unmarked) [TAK-875]
FAPP2-HIS-SUMO-C-212; 100 uM, FAPP2 at 0.5 uM, measured for 15 mins
  effect on FAPP2-mediated GlcCer transfer: significantly reduced

## CCOc1cc(CC(=O)N[C@@H](CC(C)C)c2ccccc2N2CCCCC2)ccc1C(=O)O [Repaglinide]
FAPP2-FL-SUMO-HIS
  inhibition of FAPP2 transfer activity: 50%

## O=c1oc2ccccc2c(O)c1Cc1c(O)c2ccccc2oc1=O [dicoumarol]
HeLa cells; dicoumarol 200 μM, 3 hours 3H-sphingosine pulse
  GM3 synthesis: strongly inhibited
[2]
  intra-Golgi progression of VSVG: suppressed
